Assay results from publication PMC9369325, “MATE1 Deficiency Exacerbates Dofetilide-Induced Proarrhythmia” (International Journal of Molecular Sciences, 2022).

Experiments:
human MATE1 = target: T1, human MATE1 (Homo sapiens, UniProt Q96FL8); assay: cell-based
T1 sequence (Q96FL8 1-570): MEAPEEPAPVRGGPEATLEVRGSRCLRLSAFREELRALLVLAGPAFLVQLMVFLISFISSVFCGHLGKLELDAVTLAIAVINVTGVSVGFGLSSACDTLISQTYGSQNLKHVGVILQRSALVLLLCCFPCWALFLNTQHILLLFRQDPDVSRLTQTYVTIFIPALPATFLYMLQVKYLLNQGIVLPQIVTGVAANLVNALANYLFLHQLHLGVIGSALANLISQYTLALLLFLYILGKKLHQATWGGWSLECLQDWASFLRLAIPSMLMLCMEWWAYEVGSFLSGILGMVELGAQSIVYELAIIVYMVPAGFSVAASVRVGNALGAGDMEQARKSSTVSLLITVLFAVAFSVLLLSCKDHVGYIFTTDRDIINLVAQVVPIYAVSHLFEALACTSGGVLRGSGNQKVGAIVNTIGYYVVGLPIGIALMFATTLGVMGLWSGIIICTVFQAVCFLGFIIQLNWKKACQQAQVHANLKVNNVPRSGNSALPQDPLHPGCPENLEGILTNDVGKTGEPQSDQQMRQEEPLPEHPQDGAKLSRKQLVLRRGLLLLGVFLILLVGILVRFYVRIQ

[1] = system: cardiomyocytes isolated from wild-type or MATE1-deficient mice; assay: Ex vivo cardiomyocyte uptake of [3H] dofetilide; type: cell-based, mouse; details: [3H] dofetilide 2 µM; cardiomyocytes from MATE1-/- vs wild-type mice
Experimental: Briefly, hearts from wild-type and MATE1-deficient mice were quickly removed and perfused on a Langendorff’s apparatus at 37 °C. After a 5 min perfusion with Ca^2+-free tyrode solution containing (in mM): 140 NaCl, 5.4 KCl 0.5 MgCl2, 10 Hepes and 5.6 glucose; pH 7.3, the perfusate was then switched to tyrode solution containing Liberase Blendzymes (Roche, Applied Science, IN) for digestion of the connective tissue. After 20 min of digestion, cardiomyocytes were isolated from dissected and triturated hearts and stabilized in BSA containing tyrode solution.
Isolated cardiomyocytes were then plated in 12 well plates containing Ca^2+ and Mg^2+ free Hank’s balanced salt solution.

MATE1 (SLC47A1) = target: T2, MATE1 (SLC47A1) (Homo sapiens, UniProt Q96FL8); assay: in vitro; details: HEK293 cells overexpressing human MATE1
T2 sequence (Q96FL8 1-570): T1 sequence (Q96FL8 1-570)

human (h) MATE1 = target: T3, human (h) MATE1 (Homo sapiens, UniProt Q96FL8); assay: Uptake of [14C] TEA and [14C] metformin in HEK293 cells overexpressing human MATE1 after preincubation with dofetilide; type: cell-based; details: dofetilide 1-50 µM, preincubation 15 min; TEA 2 µM, metformin 5 µM
T3 construct: host or cells: HEK293 (Flp-In system, pcDNA5/FRT vector)
T3 sequence (Q96FL8 1-570): T1 sequence (Q96FL8 1-570)
Experimental: In brief, cells were seeded in 12- or 24-well plates in phenol red-free DMEM containing 10% FBS, and were incubated at 37 °C for 24 h. […] Uptake studies were performed with [^14C] […]
overexpressing mouse (m) OCT2, OCTN1, or MATE1. Relative uptake is expressed as percentage change compared with empty vector controls (n = 3). (B) Uptake of [14C] TEA (2 µM) and [14C] metformin (5 µM) in HEK293 cells […]
followed by the co-incubation with TEA and metformin for 15 min. Data represent the mean ± SEM and are expressed as a percentage over vector control. (C) Gene expression of MATE1 in the kidney isolated from untreated male and female wild-type mice (n = 4 per group). (D) Protein expression of MATE1 in the heart isolated from untreated wild-type (WT) and MATE1-/- mice (n=3). Immunohistochemical detection of MATE1 (bottom panels) in the wild-type mouse heart (E) and kidney (F). Tissue staining lacking the primary antibody was performed as a negative control for each tissue group (top panels). Representative images were taken at x40 magnification. (G) […]
(also on this page, place not known: hMATE1 (% Control) mOCT2mOCTN1mMA TE 1 No PrimaryMATE1 Relative Uptake in of) […]

[2] = humans; cited from earlier work

| IC50 (human MATE1) | Km at 2 min (MATE1 (SLC47A1)) | inhibition of MATE1-dependent transport of TEA and metformin (human (h) MATE1) | SMILES | accumulation of dofetilide in cardiomyocytes [1] | higher dofetilide plasma concentrations in females than males [2] |
| --- | --- | --- | --- | --- | --- |
| 130 nM |  |  | COc1cc2c(Nc3ccc(Br)cc3F)ncnc2cc1OCC1CCN(C)CC1 [Vandetanib, vandetanib] |  |  |
|  | 6.72 ± 1.71 µM | dose-dependently inhibit | CN(CCOc1ccc(NS(C)(=O)=O)cc1)CCc1ccc(NS(C)(=O)=O)cc1 [dofetilide] | significantly increased in the absence of MATE1 | 14–22% |
| 170 nM |  |  | CC(=O)N1CCN(c2ccc(OCC3COC(Cn4ccnc4)(c4ccc(Cl)cc4Cl)O3)cc2)CC1 (stereo not shown) [Ketoconazole, ketoconazole] |  |  |
| 320 nM |  |  | CCC(C)n1ncn(-c2ccc(N3CCN(c4ccc(OCC5COC(Cn6cncn6)(c6ccc(Cl)cc6Cl)O5)cc4)CC3)cc2)c1=O (stereo not shown) [Itraconazole, itraconazole] |  |  |
